Results as given in US20260166045A1, “COMBINATION THERAPY COMPRISING GSPT1-DIRECTED MOLECULAR GLUE DEGRADERS AND PI3K/AKT/mTOR PATHWAY INHIBITORS” (Monte Rosa Therapeutics, Inc., priority 2022, published 2026).

What was measured:
Assay in all cases: CellTiter-Glo 2.0 cell viability, 7x7 combination dose response matrix, synergy scoring
Type in all cases: cell-based
[1] = system: MDA-MB-231 cell line
Description: (§1) A study was undertaken to determine whether the combination of a GSPT1-directed MGD and an inhibitor of the PI3K/AKT/mTOR pathway could be effective in killing cancer cells and whether certain combination could elicit a greater than additive effect on cell killing.
(§2) FIG. 1 is a flow diagram of the method used to assess cancer cell killing by a combination of a GSPT1-directed MGD and an inhibitor of the PI3K/AKT/mTOR pathway. Certain of the materials and equipment used in the studies are presented in Table 3 and the cell lines used are presented in Table 4.
(§3) All assays were run in triplicate. Each 384-well plate accommodated six 7×7 dose response matrices (FIG. 2). All compound handling was performed using an Echo 650 Series Acoustic Liquid Handler, which enables fully automated, precise, contact-free acoustic transfer in volumes as low as 2.5 nL.
(§4) The following protocol was used for cell plating: • 1. Warm media to room temperature or 37° C. • 2. Prepare complete phenol-free media by adding 10% FBS+1% Pen-Strep to RPMI 1640 Medium or DMEM. • 3. Aspirate media from T175 tissue culture flask and rinse with 10 ml PBS. • 4. Aspirate PBS and add 2 mL 0.25% trypsin. Incubate the flask at 37° C. for 5 min or until cells are detached. • 5. Add 10 mL complete media to the flask to neutralize the trypsin, then collect cells in a 50 mL conical tube. • 6. Centrifuge cells at 300 g for 5 min. Aspirate media and suspend cell pellet in fresh media. Use cell strainer to strain cells into a new 50 mL conical tube. • 7. […] Mix 100 uL cell suspension with 100 uL trypan blue (1:1) and pipette 20 μL of the mixture into each of 2 counting chambers on a slide. Insert slide. • b. Adjust focus and record the live cell count. At least 2 independent measurements should be taken. […] Cell viability should be greater than 90%. […] Dilute cell suspension to the desired concentration (20000 cells/mL) using complete phenol-free media. Prepare 10 mL cell suspension per plate+an extra 10 mL for priming the liquid handler. • 9. Dispense cells into 384-well plates using the liquid handler at 25 uL/well (500 cells/well). 3 plates should be prepared per compound plate to be treated. • 10. Cells should be dispensed into columns 1-23 only. Media only (no cells) should be dispensed into column 24. • 11. Allow plates to rest at RT for 30 minutes before transferring to the incubator. Incubate cells overnight at 37° C., 95% humidity, and 5% CO2.
(§5) Compound plates were prepared as follows using an Echo 650 Series Acoustic Liquid Handler. • 1. A compound plate containing 7-point dose responses of each compound to be treated is first prepared from stock compounds. • 2. The cell plates are treated with compounds according to the following maps, where the first compound is added across all six 7 by 7 dose response matrices, and its concentration varies by row (FIG. 2; top matrix), whereas the second compound varies for each dose response matrix, and its concentration varies by column (FIG. 2; bottom matrix). Each cell plate receives one Compound A and six different Compound Bs. • 3. To prepare a compound plate, 384-well PP plate with stock compounds (highest concentration) is prepared. Compounds are diluted 1:1000 in the cell plates, e.g. 10 mM on compound plate will be 10 uM on cell plate. A 384-well LDV plate with pre-determined volumes of DMSO is prepared. Echo is used to dilute stock compounds from PP plate into LDV plate to prepare 7-point dose responses.
(§6) Compounds were added to the cells and cell viability was measured after 72 hour incubation using CellTiter-Glo 2.0 Cell Viability Assay (Promega): • 1. For a compound addition, Echo is used to transfer 25 nL from the compound plate wells to the cell plates according to the plate maps shown in FIG. 2. Cell plates are treated in triplicate. Each well of the cell plate has 25 uL media (1:1000 dilution). Incubate cells post-treatment at 37° C., 95% humidity, and 5% CO2 for 72 hrs (step 106). • 2. […]

[2] = system: NCI-H2023 cell line; conditions: NCI-H2023, first compound 1.05-500 nM
Description: as §1, §2, §3, §4, §5, §6

[3] = system: CAL51 cell line; conditions: CAL51, first compound 4.1-1000 nM
Description: as §1, §2, §3, §4, §5, §6

[4] = system: CAL51 mutant cell line; conditions: first compound 4.1-1000 nM
Description: as §1, §2, §3, §4, §5, §6

[5] = system: NCI-H1155 cell line; conditions: first compound 1.05-500 nM
Description: as §1, §2, §3, §4, §5, §6

[6] = MDA-MB-231, combined with Alpelisib 41-10000 nM, first compound 4.1-1000 nM
[7] = MDA-MB-231, combined with Capivasertib 41-10000 nM, first compound 4.1-1000 nM
[8] = MDA-MB-231, combined with Everolimus 41-10000 nM, first compound 4.1-1000 nM
[9] = MDA-MB-231, combined with GNE-477 41-10000 nM, first compound 4.1-1000 nM
[10] = MDA-MB-231, combined with KU-0063794 41-10000 nM, first compound 4.1-1000 nM
[11] = MDA-MB-231, combined with M2698 41-10000 nM, first compound 4.1-1000 nM
[12] = combined with GNE-477 21-10000 nM
[13] = combined with KU-0063794 21-10000 nM
[14] = combined with M2698 21-10000 nM
[15] = combined with Alpelisib 41-10000 nM
[16] = combined with Capivasertib 41-10000 nM
[17] = combined with Everolimus 41-10000 nM
[18] = combined with GNE-477 41-10000 nM
[19] = combined with KU-0063794 41-10000 nM
[20] = combined with M2698 41-10000 nM
[21] = combined with Everolimus 4.1-1000 nM

## O=C1CCC(N2Cc3ccc(COC(=O)Nc4cc(OC(F)(F)F)ccc4F)cc3C2=O)C(=O)N1 (stereo not shown) [Compound 1-1, [2-(2,6-dioxopiperidin-3-yl)-3-oxo-2,3-dihydro-1H-isoindol-5-yl]methyl N-[2-fluoro-5-(trifluoromethoxy)phenyl]carbamate]
[1]; [6]
  Mean Bliss synergy score: −0.82
  Mean Loewe synergy score: 5.41
[1]; [7]
  Mean Bliss synergy score: 6.44
  Mean Loewe synergy score: 8.02
[1]; [8]
  Mean Bliss synergy score: 12.28
  Mean Loewe synergy score: 15.50
[1]; [9]
  Mean Bliss synergy score: 4.62
  Mean Loewe synergy score: 12.93
[1]; [10]
  Mean Bliss synergy score: 4.80
  Mean Loewe synergy score: 9.37
[1]; [11]
  Mean Bliss synergy score: 3.71
  Mean Loewe synergy score: 11.94
[1]; combined with M2698, MDA-MB-231 cell line, mean across dose response matrix, 72 hrs
  Mean Bliss synergy score: 4.89
[2]; [12]
  Mean Bliss synergy score: 16.57
  Mean Loewe synergy score: 4.95
[2]; [13]
  Mean Bliss synergy score: 16.57
  Mean Loewe synergy score: 7.27
[2]; [14]
  Mean Bliss synergy score: 10.90
  Mean Loewe synergy score: 9.33
[3]; [15]
  Mean Bliss synergy score: 14.61
  Mean Loewe synergy score: 11.03
[3]; [16]
  Mean Bliss synergy score: 32.32
  Mean Loewe synergy score: 28.73
[3]; [17]
  Mean Bliss synergy score: 29.55
  Mean Loewe synergy score: 34.51
[3]; [18]
  Mean Bliss synergy score: 12.11
  Mean Loewe synergy score: 12.09
[3]; [19]
  Mean Bliss synergy score: 20.80
  Mean Loewe synergy score: 19.07
[3]; [20]
  Mean Bliss synergy score: 18.29
  Mean Loewe synergy score: 22.14
[4]; [15]
  Mean Bliss synergy score: 4.76
  Mean Loewe synergy score: 0.35
[4]; [16]
  Mean Bliss synergy score: −0.44
  Mean Loewe synergy score: −3.66
[4]; [21]
  Mean Bliss synergy score: −3.14
  Mean Loewe synergy score: 4.91
[4]; [18]
  Mean Bliss synergy score: 2.54
  Mean Loewe synergy score: −2.04
[4]; [19]
  Mean Bliss synergy score: 2.83
  Mean Loewe synergy score: −1.46
[4]; [20]
  Mean Bliss synergy score: −2.37
  Mean Loewe synergy score: −2.73
[5]; [12]
  Mean Bliss synergy score: 1.97
  Mean Loewe synergy score: 4.77
[5]; [13]
  Mean Bliss synergy score: 0.38
  Mean Loewe synergy score: 3.70
[5]; [14]
  Mean Bliss synergy score: 1.48
  Mean Loewe synergy score: 5.14
